From US8076310B2, “Phosphonate nucleosides useful as active ingredients in pharmaceutical compositions for the treatment of viral infections, and intermediates for their production” (K.U.Leuven Research & Development, priority 2004, dated 2011)

Molecular target: T1, HIV reverse transcriptase (Human immunodeficiency virus type 1 group M subtype B, UniProt P04585)
T1 construct: 0.025 U/μL HIV reverse transcriptase
Assay: Steady-state kinetics of nucleotide incorporation in a DNA hybrid by HIV reverse transcriptase
Type: biochemical
Conditions: 0.025 U/μL HIV reverse transcriptase, 250 nM primer/template, average of three determinations
Description: Determination of Km and Kcat values for the incorporation of dATP and PMDTApp in a DNA hybrid was carried out under steady-state conditions as described by Creighton et al. in Methods in Enzymology (1995) 262:232-256. […] Results given below are the average of three independent determinations. The reaction mixture contained 250 nM primer/template complex 0.025 U/μL HIV reverse transcriptase, and the triphosphate nucleotides to be incorporated (dATP and PMDTApp, respectively). The template sequence and the primer sequence used in this experiment are shown below. The reaction was quenched after 1, 2 and 3 minutes by adding a double volume of stop solution (90% formamide, 0.05% bromophenol blue, 0.05% xylene cyanol and 50 mM EDTA). Samples were analyzed by gel electrophoresis on a 16% polyacrylamide ureum gel in TBE buffer (89 mM Tris-borate, 2 mM EDTA buffer, pH 8.3) after heating the samples for 5 minutes at 70° C. Products were visualised by phosphorimaging. The amount of radioactivity in the bands corresponding to the products of the enzymatic reactions was determined using the Optiquant Image Analysis Software (Packard). Rate profiles were determined using GraphPad Prism® software.

Nc1ncnc2c1ncn2[C@H]1C[C@H](O)[C@@H](COP(=O)(O)OP(=O)(O)OP(=O)(O)O)O1 [dATP, deoxy-adenosine triphosphate] gave a Kcat of 0.66 min − 1 and a Km of 0.1 µM.
